From publication PMC9916762, “Impact of Hydrophobic Chains in Five-Coordinate Glucoconjugate Pt(II) Anticancer Agents” (International Journal of Molecular Sciences, 2023)

Assays:
Calf thymus DNA = assay: Ethidium bromide displacement DNA binding assay; details: 0.05 M ammonium acetate pH 7.5, titration with complex
Text: The interaction of Pt-based drugs with biological macromolecules deeply affects their biological activity. DNA represents a target for this kind of metallodrug, while proteins are considered both as carriers and targets. To obtain information on the reactivity of the synthesised Pt compounds with DNA, fluorescence intercalation displacement assays have been performed using ethidium bromide (EB) as the DNA intercalator. When bound to DNA, EB has an emission fluorescence of significant intensity. On the other hand, when it is displaced by a competitive DNA-binding molecule, it undergoes quenching by water molecules. Thus, if a molecule binds DNA by displacing EB, a significant reduction in the fluorescence intensity of the EB-DNA complex will be observed.
The ethidium bromide (EB) displacement assay was performed on a HORIBA FluoroMax-4 spectrofluorometer equipped with a thermostat bath. Calf thymus DNA was incubated with EB in 0.05 M of ammonium acetate at pH 7.5, at a DNA:EB molar ratio of 1:5 for 30 min in the dark at room temperature. Then, the fluorescence quenching of this complex was evaluated by adding to it increasing amounts of Pt compounds dissolved in DMSO (20 mM). Samples were equilibrated for 5 min before collecting each spectrum. […]

[1] = In-solution stability in DMSO (1H NMR, UV-vis); format: physicochemical; details: 50 μM in DMSO, 25 °C, up to 7 days
Procedure: The stability of the complexes in DMSO-d6, the solvent used to prepare stock solutions for biological experiments, was evaluated by recording their UV–vis absorptions and ^1H-NMR spectra over time.
UV–vis absorption spectra of 1-Me,Me were recorded in DMSO for 5 h and then after 24 h and 7 days (Figure 5). […] In fact, the λmax experienced a blue shift from 278 to 269 nm, giving rise to an isosbestic point at 275 nm. In addition, a decrease in the absorbance of the shoulder at 300 nm is observed, together with an absorbance increase in the shoulder at 260 nm. […] It is highly probable that a slow release of ethene and dmphen can occur. This would lead to the formation of the square planar species of type 4-R,R’, as reported in Scheme 3.
In all cases, no cleavage of the Pt–carbene bond was detected. Figure 6 reports the ^1H NMR spectra of 1-Me,Oct after dissolution, 1.5, 5, and 24 h.
The stability of the 1-R,R’ complexes in DMSO was studied by dissolving 5 mg of each complex in 250 μL of DMSO-d6 and then diluting 200 μL of this solution with 300 μL of DMSO-d6. The stability of the 1-R,R’ complexes in aqueous solvents was studied by dissolving 5 mg of each complex in 250 μL of DMSO-d6 and then diluting 50 μL of this solution with 500 μL of D2O. The ^1H-NMR spectra of the resulting solutions were recorded over time. […]

SVT2 cells = assay: Western blot of pro-caspases 9 and 3, SVT2; format: cell-based, murine; details: SVT2, 9.8 μM, 48 h
Procedure: In particular, SVT2 and A431 were incubated for 48 h with 1-Me,Me and 1-Oct,Me, using the IC50 value concentrations. At the end of incubation, uptake and cell death mechanisms were evaluated. […] Finally, apoptosis was investigated by Western blot analyses using specific antibodies against pro-caspases 9 and 3.
The SVT2 were seeded on six-well plates at a density of 2.5 × 10^5 cells/well, whereas A431 was seeded at a density of 3 × 10^5 cells/well. After 24 h, cells were treated with 9.8 μM of 1-Me,Me or 2.3 μM 1-Oct,Me. After 48 h of incubation, Western blot analyses were performed by using pro-caspase 9 (Cell Signaling Technology, Danvers, MA, USA) and pro-caspase 3 (Abcam, Cambridge, MA, USA) antibodies, as reported by Del Giudice et al. Protein intensity levels were normalized using β-actin (Sigma-Aldrich, St. Louis, MO, USA). The chemiluminescence detection system was purchased from Bio-Rad (Hercules, CA, USA).

[2] = tested on: murine fibroblast BALB/c-3T3 transformed with the SV40 virus (SVT2); assay: MTT cell viability assay, SVT2; format: cell-based
Text: The immortalized human keratinocytes (HaCaT) were from Innoprot.

[3] = In-solution stability in aqueous solvents (1H NMR, UV-vis); format: physicochemical
Text: Attempts to evaluate their stability in aqueous solutions were complicated due the poor solubility of the complexes in water. Only for 1-Me,Me was it possible to prepare a solution in the mixed solvent D2O:DMSO-d6 10:1. […] To further study the stability of 1-Me,Me in aqueous solvents, UV–vis absorption spectra over time were collected under the two experimental conditions (20% ethylene glycol, 0.1 M sodium acetate buffer at pH 4.0 and 0.6 M sodium nitrate and 2.0 M sodium formate, 0.1 M Hepes buffer at pH 7.5), used to obtain crystals of the adducts with the model protein hen egg white lysozyme (HEWL). HEWL has been used as a model system to study the interaction with proteins of several metallodrugs, including cisplatin [31, 32, 33], oxaliplatin [34, 35], and carboplatin [31, 32]. […] Over time, a red shift of the λmax from 275 to 278 nm and of the peak at 313 nm, which shifted up to 317 nm, was observed. […] Such results convinced us that five-coordinate compounds are the species administered to cells if DMSO stock solutions are immediately diluted in an aqueous medium.
The stability of the 1-R,R’ complexes in DMSO was studied by dissolving 5 mg of each complex in 250 μL of DMSO-d6 and then diluting 200 μL of this solution with 300 μL of DMSO-d6. […] The ^1H-NMR spectra of the resulting solutions were recorded over time. […]

Platinum(1+), (2,9-dimethyl-1,10-phenanthroline- N1,N10)(η2-ethene)methyl[1,3-dihydro-1,3-dimethyl-4-[1-[2,3,4,6-tetrakis-O-(acetyl)-β-D-glucopyranosyl]-1H-1,2,3-triazol-4-yl]-2H-imidazol-2-ylidene], 1,1,1-trifluoromethanesulfonate [1-Me,Me]
fluorescence intensity of EB-DNA complex (Calf thymus DNA): significant reduction in fluorescence intensity
stability, UV-vis spectra over time [1]: poor stability
pro-caspases 9 and 3 levels (SVT2 cells): significant decrease in pro-caspases 9 and 3 levels
IC50 ([2]; 48 h incubation, MTT): 9.8 ± 0.3 µM
SI (selectivity index) ([2]; ratio IC50 BALB-c/3T3 / IC50 SVT2): 2.65
stability, UV-vis spectra over time ([3]; 50 μM, 2.0 M sodium formate, 0.1 M Hepes buffer pH 7.5): stable over time
stability, NMR spectra over time ([3]; D2O:DMSO-d6 10:1, after 24 h): no appreciable changes
